Assay results taken from article PMC7932537, “Quantitative profiling of protease specificity” (PLoS Computational Biology, 2021).

Assays:
MMP-2 [1] = assay: Substrate phage display with NGS: relative probability (RP) of P3-P1' tetramer clusters; assay type: biochemical, human; conditions: MMP2;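 note: ratio of tetramer probability after protease selection to that in naive phage library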
MMP-2 [2] = target: T1, MMP-2 (Homo sapiens, UniProt P08253); assay: K(obs) of individual phage substrates (set of 1369); assay type: biochemical; conditions: MMP2
T1 sequence (P08253 110-660): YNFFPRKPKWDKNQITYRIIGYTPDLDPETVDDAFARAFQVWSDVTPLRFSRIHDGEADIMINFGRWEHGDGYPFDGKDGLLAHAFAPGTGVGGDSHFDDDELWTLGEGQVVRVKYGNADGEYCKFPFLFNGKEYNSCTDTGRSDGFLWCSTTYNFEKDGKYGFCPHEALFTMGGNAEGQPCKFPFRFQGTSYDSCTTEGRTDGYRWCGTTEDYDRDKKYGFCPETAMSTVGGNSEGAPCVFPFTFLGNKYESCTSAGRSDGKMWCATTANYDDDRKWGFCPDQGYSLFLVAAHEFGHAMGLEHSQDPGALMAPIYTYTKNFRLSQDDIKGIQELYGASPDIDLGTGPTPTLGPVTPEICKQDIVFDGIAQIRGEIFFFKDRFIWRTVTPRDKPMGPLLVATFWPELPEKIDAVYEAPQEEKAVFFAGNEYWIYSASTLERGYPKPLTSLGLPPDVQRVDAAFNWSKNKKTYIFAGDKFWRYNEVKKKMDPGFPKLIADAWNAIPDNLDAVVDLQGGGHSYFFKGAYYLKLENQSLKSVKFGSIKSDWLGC

MMP-9 = MMP-9 (Homo sapiens, UniProt P14780); assay: as above; assay type: biochemical; conditions: MMP9
[3] = RP of the P3-P1' tetramer contained in the substrate
[4] = individual phage substrate of the set of 1369 peptides, cleavage position marked by '-'
[5] = individual phage substrate of the set of 1369 peptides, dash in the sequence marks the cleavage position
[6] = RP of the P3-P1' tetramer contained in the substrate (substrate phage display with NGS)
[7] = individual phage substrates, set of 1369 peptides, cleavage position marked by hyphen in sequence
[8] = individual phage substrates, set of 1369 peptides, hyphen in sequence marks cleavage position

Chain of MMP-9 (P14780 94-707): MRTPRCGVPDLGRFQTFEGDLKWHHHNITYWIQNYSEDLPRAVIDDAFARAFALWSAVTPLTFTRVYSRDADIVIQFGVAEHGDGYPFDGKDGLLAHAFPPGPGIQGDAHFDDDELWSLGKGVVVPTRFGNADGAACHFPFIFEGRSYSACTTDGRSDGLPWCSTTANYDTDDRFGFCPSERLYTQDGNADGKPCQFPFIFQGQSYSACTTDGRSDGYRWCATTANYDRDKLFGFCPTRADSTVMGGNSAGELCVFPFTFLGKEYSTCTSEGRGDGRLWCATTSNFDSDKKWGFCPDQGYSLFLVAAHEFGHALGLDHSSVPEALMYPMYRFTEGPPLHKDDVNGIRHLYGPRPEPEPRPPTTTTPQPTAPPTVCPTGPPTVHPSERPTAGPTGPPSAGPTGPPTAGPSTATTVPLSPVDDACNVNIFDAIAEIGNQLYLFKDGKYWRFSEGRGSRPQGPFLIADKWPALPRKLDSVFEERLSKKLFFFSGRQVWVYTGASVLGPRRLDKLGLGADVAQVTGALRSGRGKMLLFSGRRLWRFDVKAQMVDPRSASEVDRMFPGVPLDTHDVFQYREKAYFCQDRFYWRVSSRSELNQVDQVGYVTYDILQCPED

Substance	relative probability (RP) (MMP-2 [1]; [3])	Kobs (MMP-2 [2]; [4]) [M⁻¹ s⁻¹]	Kobs (MMP-9; [5]) [M⁻¹ s⁻¹]	relative probability (RP) (MMP-2 [1]; [6])	Kobs (MMP-2 [2]; [7]) [M⁻¹ s⁻¹]	Kobs (MMP-9; [8]) [M⁻¹ s⁻¹]
GWPNA-FLTAS	16.8865	5667.28	231.616	–	–	–
GWPRE-LKTAS	31.9513	12792.1	12792.1	–	–	–
GWVSY-LKTAS	–	–	–	20.2936	9740.44	0
GWWMN-LTASG	–	–	–	0	1071.29	836.403
GYARL-LRTAS	1.104	484.315	690.17	–	–	–
GYFGN-LRTAS	–	–	–	26.0275	7015.91	0
GYIQS-LFTAS	–	–	–	25.2682	5461.43	0
GYPLH-LQTAS	–	–	–	34.1843	9740.44	8941.32
GYPRA-FSTAS	31.8957	12792.1	12792.1	–	–	–
GYPRN-IGTAS	31.9621	8941.32	7386.83	–	–	–
GYPWA-WRTAS	10.3227	1327.88	4922.1	–	–	–
GYPWS-LSTAS	28.5684	2218.08	7015.91	–	–	–
HAHAS-LTASG	–	–	–	26.2573	12792.1	142.481
HAPLN-FTASG	28.3679	12792.1	10866.7	–	–	–
HAPRG-STASG	16.3331	7015.91	7386.83	–	–	–
HDYFN-LTASG	–	–	–	0	27.918	0
HGLWS-LTASG	–	–	–	8.3838	2097.28	1071.29
HIWQN-LTASG	–	–	–	6.292	654.784	0
HLAYH-MTASG	–	–	–	3.76	2476.66	6396.07
HNANY-LTASG	–	–	–	3.901	1610.61	0
HQWAA-LTASG	24.4484	12792.1	836.403	–	–	–
HRHAH-LTASG	20.0775	7015.91	0	–	–	–
HRLLS-LTASG	2.018	6688.74	912.511	–	–	–
HRPRS-LTASG	33.3704	12792.1	12792.1	–	–	–
HRQQN-LTASG	–	–	–	4.247	912.511	0
HRWSA-LTASG	25.8217	12792.1	619.843	–	–	–
HSPWF-LTASG	–	–	–	12.628	3165.09	9740.44

Substance	relative probability (RP) (MMP-2 [1]; [3])	Kobs (MMP-2 [2]; [4]) [M⁻¹ s⁻¹]	Kobs (MMP-9; [5]) [M⁻¹ s⁻¹]	relative probability (RP) (MMP-2 [1]; [6])	Kobs (MMP-2 [2]; [7]) [M⁻¹ s⁻¹]	Kobs (MMP-9; [8]) [M⁻¹ s⁻¹]
HTSNW-LTASG	9.68	3079.62	451.441	–	–	–
HVWMN-LTASG	0	418.952	619.843	–	–	–
HWPVG-LTASG	–	–	–	35.2016	2837.92	3079.62
HYPLN-STASG	18.9358	4335.13	8321.48	–	–	–
IAFSQ-LTASG	–	–	–	9.065	6688.74	0
IDTRW-YTASG	6.7229	3344.37	2344.36	–	–	–
IEAWS-LTASG	–	–	–	7.006	762.325	7015.91
IGALA-LTASG	22.1184	12792.1	12792.1	–	–	–
IGPQF-LTASG	26.3159	12792.1	12792.1	–	–	–
IPAFN-LTASG	–	–	–	16.2959	10866.7	12792.1
IPLLN-LTASG	–	–	–	8.579	12792.1	1870.4
ISVNY-LTASG	–	–	–	8.427	3637.04	323.705
ISWLN-LTASG	–	–	–	0.1218	1112.44	386.839
KAVNH-LTASG	12.8499	1763.55	0	–	–	–
KDYLH-LTASG	0.4077	0	0	–	–	–
KFWFN-LTASG	0	0	0	–	–	–
KGPEM-LTASG	–	–	–	16.0599	3637.04	5667.28
KKWRG-LTASG	23.375	3079.62	6688.74	–	–	–
KLGRA-LTASG	7.944	2615.58	4763.33	–	–	–
KMPSF-LTASG	–	–	–	29.537	8321.48	8941.32
KMVYM-LTASG	–	–	–	5.094	1561.44	3438.54
KSPLG-LTASG	–	–	–	35.3536	4470.66	10866.7
KSPSL-YTASG	18.1013	4335.13	5090.5	–	–	–
KSPVF-LTASG	21.7568	9740.44	6688.74	–	–	–
KTVVW-YTASG	9.938	3165.09	3850.82	–	–	–
KTWRN-LTASG	6.7583	690.17	0	–	–	–
